# Source: US20150297761A1, “PEPTIDIC STRUCTURES INCORPORATING AN AMINO ACID METAL COMPLEX AND APPLICATIONS IN MAGNETIC RESONANCE IMAGING” (THE GENERAL HOSPITAL CORPORATION, priority 2012, published 2015)
# Key:
# [1] = Ligand challenge, equilibrium constant Kcomp of [Gd(DTPA)(H2O)]2− vs. L; assay type: physicochemical; settings: calculated from literature thermodynamic data
# Procedure: As a means of assessing thermodynamic stability relative to other Gd(III)-complexes, [Gd(CyPic3A)(H2O)2]^− was challenged with DTPA in pH 7.4 25 mM Tris buffer. […] From this information it was possible to deduce equilibrium constants (Kcomp) for the competition reaction described in Equation 5,^31 where L=DTPA and L′=challenging chelator.
# (§1) Equilibration of each solution was monitored by LC-MS. Relative distributions of [Gd(CyPic3A)(H2O)2]^− and CyPic3A were determined by integrating the corresponding absorbance traces at 280 nm. […] Kcomp values determined between [Gd(DTPA)(H2O)]^2− and various ligands were determined from conditional formation constants (Kcond)^4 values taken from the literature.^6-16 Direct comparisons were only made between Kcond values determined under identical conditions.
# [2] = Ligand challenge, equilibrium constant Kcomp of MS-325 vs. L; assay type: physicochemical; settings: calculated from literature thermodynamic data
# Procedure: as §1
# [3] = Zn(II) challenge of the Gd(III) complex of L; literature (ref 11); cited from earlier work
# [4] = Kinetic inertness: Zn(II) transmetallation in phosphate buffer, followed by 1/T1; assay type: physicochemical
# Source text: Kinetic inertness was also taken into account in the evaluation of potential probes. In this regard, [Gd(CyPic3A)(H2O)2]^− was challenged with 1 equiv. [ZnPO4]^− as a slurry in pH 7.0 phosphate buffer at 310 K (see below). Several clinically utilized Gd(III) complexes have been benchmarked relative to one another in this manner.^37 As Gd(III) replaced by Zn(II) precipitates from the solution as GdPO4, the relaxation rate 1/T1 decreases. In this method, the time required to reach 80% of the initial 1/T1 value was utilized as an index of kinetic inertness.
# Modified conditions of Muller and co-workers were used for this experiment.^11,12 Solutions containing 2.5 mM [Gd(CyPic3A)(H2O)2]^− and 2.5 mM Zn(OTf)2 were combined in pH 7.0 phosphate buffer (50 mM) and placed in an incubator shaker set to 310 K. Progress of the transchelation was monitored via the decrease in 1/T1 with time. Prior to measurement, aliquots were placed in small glass inserts and centrifuged to bring all insoluble material to the bottom so as not to interfere with the measurement.
# HSA = HSA (Homo sapiens, UniProt P02768); assay: HSA binding by ultrafiltration and ICP-MS (Example 3); assay type: in vitro ADME; settings: 0.1 mM compound, 4.5% (w/v) HSA, 37° C.
# HSA, sequence (P02768 25-609): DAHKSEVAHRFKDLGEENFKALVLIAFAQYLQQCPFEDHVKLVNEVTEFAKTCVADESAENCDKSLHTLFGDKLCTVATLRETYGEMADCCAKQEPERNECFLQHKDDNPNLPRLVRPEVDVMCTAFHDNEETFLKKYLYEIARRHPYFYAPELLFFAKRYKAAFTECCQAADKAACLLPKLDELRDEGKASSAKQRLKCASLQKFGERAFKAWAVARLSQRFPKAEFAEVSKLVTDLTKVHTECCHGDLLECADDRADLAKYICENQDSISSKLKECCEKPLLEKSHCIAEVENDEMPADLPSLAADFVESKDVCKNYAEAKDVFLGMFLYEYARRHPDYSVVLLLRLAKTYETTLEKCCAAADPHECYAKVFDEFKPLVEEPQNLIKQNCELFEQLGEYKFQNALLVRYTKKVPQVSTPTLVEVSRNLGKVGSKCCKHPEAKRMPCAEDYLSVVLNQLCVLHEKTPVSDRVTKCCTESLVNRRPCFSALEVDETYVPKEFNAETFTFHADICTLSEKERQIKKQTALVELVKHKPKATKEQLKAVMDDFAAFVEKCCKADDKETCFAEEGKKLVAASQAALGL
# Procedure: In order to measure HSA binding of the complexes, a 0.1 mM solution (determined by ICP-MS) of the corresponding Gd complex in 4.5% w/v HSA was prepared and pipetted into a Ultrafree-MC Microcentrifuge Filter (NMWL 5,000 Da, PLCC, Millipore). The mixture is incubated at 37° C. for 10 minutes and subsequently centrifuged at 12,000 rpm for 15 minutes. Binding is determined by measurement of Gd content in the filtrate by ICP-MS.
# [5] = Relaxivity in the absence and presence of HSA (Example 3); assay type: physicochemical; settings: for r1 (20 MHz), absence of HSA / r1 (60 MHz), absence of HSA: absence of HSA (first value of cell); for r1 (20 MHz), presence of HSA / r1 (60 MHz), presence of HSA: presence of HSA (second value of cell)
# Procedure: ^1H and ^13C NMR spectra were recorded on a Varian 500 NMR system equipped with a 5 mm broadband probe. Longitudinal relaxation times, T1, were measured by using the inversion recovery method on Bruker Minispecs. mq20 (20 MHz) and mq60 (60 MHz). Purification via HPLC of intermediates toward Fmoc-DOTAla was performed using method A: Injection of crude mixture onto preparative HPLC on a Rainin, Dynamax (column: 250 mm Kromasil C18) by using A: 0.1% TFA in water, B: 0.1% TFA in MeCN, flow-rate 15 mL/min, 1 over 23 minutes. HPLC purity analysis (both UV and MS detection) was carried out on an Agilent 1100 system (column: Phenomenex Luna, C18(2) 100/2 mm) with UV detection at 220, 254 and 280 nm by using a method B: A gradient of A(0.1% formic acid in water) to 95% B(0.1% formic acid in MeCN), flow-rate 0.8 mL/min, 1 over 15 minutes.
# [6] = hydration state; literature (superscript refs); cited from earlier work
# [7] = Relaxivity of Gd(DOTAla) metallopeptides and reference agents (T1 inversion recovery, 37° C.); assay type: physicochemical
# Procedure: Main numbers are given per Gd, numbers in parentheses are per molecule values. All numbers were determined at 37° C. using an inversion recovery sequence at concentrations ranging from 0.05 to 0.6 mM/Gd. Table 4 in Example 2 further expands the data of Table 1.
# Per Gd relaxivities were determined by measuring T1 at 37° C. using 20, 60, 200, 400 and 500 MHz spectrometers. Relaxivities for MS-325 (with and without the presence of HSA) as a reference compound with a long τR and [Gd(HP-DO3A)(H2O)] as a reference for very short τR were also measured, and all the relaxivity data is tabulated in Table 4, together with results obtained from literature for the compounds with similar estimated τR. […] Additional rigidity through cyclization seems to provide only minor relaxivity increase for the dimeric and trimeric systems (Gd2C2 and Gd3C3).
# Measurement of relaxivity. Longitudinal relaxation times T1, were measured on Bruker Minispecs mq20 (0.47 T) and mq60 (1.41 T), a Bruker Bioscan horizontal bore 4.7 T, 9.4 T and 11.7 T Varian NMR spectrometers. T1 was measured by using an inversion recovery method with 10 inversion time values ranging from 0.05×T1 to 5×T1. Relaxivity was calculated from a linear plot of 3 or 4 different concentrations (ranging from 0.01 to 0.5 mM, depending on amount of compound isolated) versus the corresponding inverse relaxation times. All samples were measured at 37° C. using either the internal temperature control of the instrument (0.47, 1.41, 9.4 and 11.7 T) or a warm air blower (4.7 T). MS-325/HSA was prepared in a 4.5% w/v solution of HSA (0.66 mM) in PBS. The MS-325 concentration (in presence of HSA) ranged from 0.05 to 0.15 mM.
# [8] = cited from earlier work
# [9] = 310 K, cited from earlier work; for r1 0.47 T 310K: literature (superscript refs); for r1 1.41 T 310K: cell says 1.5 T, literature (ref 17)
# [10] = literature (refs 37, 38), cited from earlier work
Compound,Kcomp [Gd(DTPA)(H2O)]^2- vs. L pH 4 [1],"Kcomp, [Gd(DTPA)(H2O)]^2- vs. L pH 7.4 [1]",Kcomp MS-325 vs. L pH 4 [2],Kcomp MS-325 vs. L pH 7.4 [2],% HSA binding (HSA) [%],"r1 (20 MHz), absence of HSA [5] [mM⁻¹ s⁻¹]","r1 (20 MHz), presence of HSA [5] [mM⁻¹ s⁻¹]","r1 (60 MHz), absence of HSA [5] [mM⁻¹ s⁻¹]","r1 (60 MHz), presence of HSA [5] [mM⁻¹ s⁻¹]",other results
O=C(O)CN(CCN(CC(=O)O)C[C@H](COP(=O)(O)OC1CCC(c2ccccc2)(c2ccccc2)CC1)N(CC(=O)O)CC(=O)O)CC(=O)O,0.57^5,2.88^5,1,1,–,–,–,–,–,Time to 80% r1 (min) [3]: 3800^11 min
O=C(O)CN1CCNCCN(CC(=O)O)CCN(CC(=O)O)CC1 [DO3A],"0.00048^5,6","0.0005^5,6","0.00046^5,6","0.00017^5,6",–,–,–,–,–,Time to 80% r1 (min) [3]: inert^11
O=C(O)CN(CCN(CC(=O)O)CC(=O)O)CCN(CC(=O)O)CC(=O)O [DTPA],1,1,0.58^5,0.35^5,–,–,–,–,–,"Time to 80% r1 ([4]; Zn(II) challenge of the Gd(III) complex of L, this work): 383 min"
"COC(=O)CNC(=O)C(CN1CCN(CC(=O)O)CCN(CC(=O)O)CCN(CC(=O)O)CC1)NC(=O)C(N)Cc1cc(I)c(O)c(I)c1 (centres unmarked) [Gd (7), 2,2′,2″-(10-(2-(2-amino-3-(4-hydroxy-3,5-diiodophenyl)propanamido)-3-((2-methoxy-2-oxoethyl)amino)-3-oxopropyl)-1,4,7,10-tetraazacyclododecane-1,4,7-triyl)triacetic acid]",–,–,–,–,6,4.7,7.05,3.9,6.9,–
"C[C@@H](NC(=O)C(CN1CCN(CC(=O)O)CCN(CC(=O)O)CCN(CC(=O)O)CC1)NC(=O)C(N)Cc1cc(I)c(O)c(I)c1)c1ccccc1 (stereo partly drawn) [Gd (13-R), 2,2′,2″-(10-(2-(2-amino-3-(4-hydroxy-3,5-diiodophenyl)propanamido)-3-oxo-3-(((R)-1-phenylethyl)amino)propyl)-1,4,7,10-tetraazacyclododecane-1,4,7-triyl)triacetic acid]",–,–,–,–,36,6.6,18.4,6.4,11.4,–
"C[C@@H](NC(=O)C(CN1CCN(CC(=O)O)CCN(CC(=O)O)CCN(CC(=O)O)CC1)NC(=O)C(N)Cc1cc(I)c(O)c(I)c1)c1ccccc1 (stereo partly drawn) [Gd (13-S), 2,2′,2″-(10-(2-(2-amino-3-(4-hydroxy-3,5-diiodophenyl)propanamido)-3-oxo-3-(((R)-1-phenylethyl)amino)propyl)-1,4,7,10-tetraazacyclododecane-1,4,7-triyl)triacetic acid]",–,–,–,–,39,7.1,18.5,6.1,10.9,–
"C[C@@H](C(=O)NC(CN1CCN(CC(=O)O)CCN(CC(=O)O)CCN(CC(=O)O)CC1)C(=O)N[C@@H](Cc1cc(I)c(O)c(I)c1)C(=O)O)c1ccccc1 (stereo partly drawn) [Gd (19), 2,2′,2″-(10-(3-(((S)-1-carboxy-2-(4-hydroxy-3,5-diiodophenyl)ethyl)amino)-3-oxo-2-((R)-2-phenylpropanamido)propyl)-1,4,7,10-tetraazacyclododecane-1,4,7-triyl)triacetic acid]",–,–,–,–,69,6.0,30.7,6.4,21.8,–
CC(O)CN1CCN(CC(=O)O)CCN(CC(=O)O)CCN(CC(=O)O)CC1 (centres unmarked) [HP-DO3A],0.22^6,0.19^6,"0.16^5,6","0.07^5,6",–,–,–,–,–,Time to 80% r1 (min) [3]: inert^11
"O=C([O-])CN(CCN(CC(=O)[O-])C[C@H](COP(=O)([O-])OC1CCC(c2ccccc2)(c2ccccc2)CC1)N(CC(=O)[O-])CC(=O)[O-])CC(=O)[O-].[Gd+3].[H+].[H+].[H+] [MS-325, gadofosveset]",–,–,–,–,–,–,–,–,–,"q [6]: 1^18; Relaxivity per Gd, 200 MHz ([7]; 200 MHz): 5.7 mM⁻¹ s⁻¹; Relaxivity per Gd, 200 MHz, with HSA ([7]; 200 MHz, presence of 4.5% HSA): 5.0 mM⁻¹ s⁻¹; Relaxivity per Gd, 400 MHz ([7]; 400 MHz (9.4 T)): 4.8 mM⁻¹ s⁻¹; Relaxivity per Gd, 400 MHz, with HSA ([7]; 400 MHz, presence of 4.5% HSA): 4.1 mM⁻¹ s⁻¹; Relaxivity per Gd, 500 MHz ([7]; 500 MHz): 4.7 mM⁻¹ s⁻¹; Relaxivity per Gd, 500 MHz, with HSA ([7]; 500 MHz, presence of 4.5% HSA): 3.7 mM⁻¹ s⁻¹; Relaxivity per Gd, 20 MHz ([8]; 20 MHz, 37° C., literature data (footnotes a, b, d)): 6.8^d mM^−1 s^−1; Relaxivity per Gd, 20 MHz, with HSA ([8]; 20 MHz, 37° C., presence of 4.5% HSA, from ref 22): 42^d mM^−1 s^−1; Relaxivity per Gd, 60 MHz ([8]; 60 MHz, 37° C., literature data (footnotes a, b, d)): 5.4^d mM^−1 s^−1; Relaxivity per Gd, 60 MHz, with HSA ([8]; 60 MHz, 37° C., presence of 4.5% HSA, from ref 22): 23.8^d mM^−1 s^−1; peak molecular relaxivity ([8]; HSA-associated): above 40 mM^−1s^−1; increase in relaxivity once associated with human serum albumin (HSA) ([8]; at low fields): over 8 fold; r1 0.47 T 310K [9]: 5.8^17 mM^−1s^−1; r1 1.41 T 310K [9]: 5.2 (1.5 T)^17 mM^−1s^−1"
CNC(=O)CN(CCN(CCN(CC(=O)[O-])CC(=O)NC)CC(=O)[O-])CC(=O)[O-].[Gd+3] [[Gd(DTPA-BMA)(H2O)]],–,–,–,–,–,–,–,–,–,"q [6]: 1^16; time to 80% of the initial 1/T1 ([4]; 1 equiv. Zn(II), pH 7.0 phosphate buffer, 310 K): 124 min; r1 0.47 T 310K [9]: 3.5^17 mM^−1s^−1; r1 1.41 T 310K [9]: 3.3 (1.5 T)^17 mM^−1s^−1"
Gd(DO3A-N-α-aminopropionate) [F],–,–,–,–,–,–,–,–,–,ΔH^‡ ([10]; activation enthalpy of water exchange): 4.57 kcal/mol; ^310kex × 10^6 (s^−1) ([10]; water exchange rate at 310 K): 42 × 10^6 s^−1; ^310 TM (ns) ([10]; water residency time at 310 K (37° C.)): 24 ns
